# Tests used:
# [1] = Absorption maximum and optical density of dye; assay type: physicochemical; conditions: for λmax: Table 1
# Protocol: The solution was coated using K-bar 3 onto unsubbed 0.01 cm PET base and the resulting coating dried for 1 hour at 30° C. ("K-bars" are wire wound coating rods manufactured by R.K. Print-Coat Instrument Ltd.) The dried coating was topcoated with an aqueous solution of poly(vinyl alcohol) (8%) containing Tergitol TMN-10, commercially available from Union Carbide, using K-Bar 8 (10 ml 8% poly(vinyl alcohol) containing 1 ml 10% Tergitol TMN-10). The top coating was dried for 12 hours at 30° C. to provide a PVA oxygen-impermeable barrier layer over the photopolymer layer. The inclusion of a PVA barrier layer provides a more controlled imaging element for the evaluation of dye sensitised photopolymerisation than the composite of the previous Example.
# [2] = Sensitisation of acrylate polymerisation: tungsten light exposure of laminate, acetone development (Example 4); conditions: coating; for Acetone Solubility After Exposure: after exposure to 250W tungsten light source for 30 seconds
# Protocol: The ability of Dye C of the invention and Control Dyes 1 and 2 to sensitise acrylate polymerisation was evaluated by the following protocol.
# A solution of Dye C (0.lg), pentaerythritol tetraacrylate monomer (0.6g), commercially available from Ancomer Chemicals under the trade designation ATM 11, 4-butoxyphenyl phenyl iodonium trifluoroacetate (0.125g) shown below as IOD J, and poly(vinyl butyral) (Butvar B-76) (0.6 g), was made in butanone (95 g) in conditions of diminished light. [drawing 30]
# The solution was coated onto 0.01 cm unsubbed poly(ethylene terephthalate) (PET) base at a wet thickness of 24μm and dried. A laminate was prepared by covering the monomer coating with a second 0.01 cm PET sheet by cold pressure rolling. The laminate was imagewise exposed to a 250W tungsten light source for 30 seconds using the stage of an overhead projector. […] Stripping of the cover sheet was more readily completed in exposed areas, whereas, in unexposed areas the monomer coatings partially adhered to the cover sheet. The latent image was developed by immersion in acetone, wherein exposed areas remained adhered to the PET base and unexposed areas were rapidly dissolved to obtain a relief image.
# [3] = Dye stability on storage in light-tight envelope at room temperature; assay type: physicochemical; conditions: for Loss of optical density after storage (thermal bleaching): Example 5 coating, 24 hour storage, light-tight envelope; for Loss of optical density after storage (thermal bleaching) / Loss of dye density during storage / Dye Stability: OD at Day 0 / Dye Stability: OD at Day 7: room temperature; for Loss of dye density during storage: less than 24 hours; for Dye Stability: OD at Day 0 / Dye Stability: OD at Day 7: lighttight envelope
# Protocol: However, both Control Dyes 1 and 2 are readily bleached during storage with an 80% loss of dye density in less than 24 hours. Thus the dyes of the invention show increased stability compared with the control dyes.
# *Storage is conducted in a lighttight envelope at room temperature.
Structure (SMILES),λmax [1],Acetone Solubility After Exposure [2],Acetone Solubility Before Exposure [2],Loss of optical density after storage (thermal bleaching) [3],Loss of dye density during storage ([3]; laminate),Dye Stability: OD at Day 0 [3],Dye Stability: OD at Day 7 [3],Absorption maximum in coating ([1]; dried coating of Example 5),"OD at the absorption maximum ([1]; dried coating of Example 5, at 803 nm)","Imaging characteristics after storage ([3]; laminate, light tight envelope, 7 days, room temperature prior to exposure)"
CCOC(=O)C(C#N)=CC=CC=CC=CC(C#N)=C(O)OCC [Control Dye 1],650 nm,Yes,Yes,lost substantially all optical density,80%,1.3,0.1,–,–,–
O=C1C(=CC=CC=CC=CC2=C(O)c3ccccc3C2=O)C(=O)c2ccccc21 [Control Dye 2],760 nm,Yes,Yes,lost substantially all optical density,80%,1.5,0.1,–,–,–
N#CC(C#N)=C1C(=CC=CC=CC2=C(O)c3ccccc3C2=C(C#N)C#N)C(=O)c2ccccc21 [Dye B],–,–,–,–,–,–,–,803 nm,0.39,–
N#CC(C#N)=C1C(=CC=CC=CC2=C(O)c3c(cccc3[N+](=O)[O-])C2=C(C#N)C#N)C(=O)c2c1cccc2[N+](=O)[O-] [Dye C],815 nm,No,Yes,–,–,0.8,0.8,–,–,unchanged imaging characteristics

# Source: patent US5208135A, “Preparation and use of dyes” (Minnesota Mining and Manufacturing Company, priority 1990, dated 1993)
